This is an account of results in US6433023B1, “Compositions having anti-leishmanial activity” (The United States of America as represented by the …, priority 1997, dated 2002).

pIC50: −log10 of the molar value. Read-outs that look alike come from different tables or passages of the source.

In this test the test system is Leishmania promastigotes. Nature of the test: Testing of agents against Leishmania species in parasite culture medium (anti-leishmanial activity). It counts as cell-based. As to conditions: for pIC50: read-out: concentrations effective at the IC50 level; for effectiveness compared with trifluralin: comparison with trifluralin. The source says: […]-3,5-dinitrobenzotrifluoride (compound 1), 4-chloro-3-nitrobenzotrifluoride (compound 4), 3-amino-4-chlorobenzotrifluoride (compound 5), 2-bromo-3,5(bis(trifluoromethyl)aniline (compound 6), 4-methoxy-3-nitrobenzotrifluoride (compound 7), and 2-nitro-4-(trifluoromethyl)thiophenol (compound 8) were obtained from Aldrich Chemical Company and were used to without further purification. Trifluralin was obtained from Reidel de Haen and was used without further purification. 4-chloro-3-nitro-5-sulfonylbenzotrifluoride (compound 2) and 4-chloro-3-nitro-5-carboxybenzotrifluoride (compound 3) were obtained from the Walter Reed Army Institute of Research inventory and were used without further purification. All of the agents were initially dissolved in dimethyl sulfoxide and were then diluted at 100 fold in parasitic culture medium before being tested against Leishmania species. […]

Setting [1] is: against Leishmania species, agents dissolved in dimethyl sulfoxide, diluted 100 fold in parasitic culture medium.

In the case of `O=[N+]([O-])c1cc(C(F)(F)F)cc([N+](=O)[O-])c1Cl` [compound 1, 4-chloro-3,5 dinitrobenzotrifluoride], under “Leishmania”, the pIC50 was 6.05. The “effectiveness compared with trifluralin” value (against Leishmania species) was “much more effective than trifluralin”.
`O=[N+]([O-])C1=CC(C(F)(F)F)=CC(=S(=O)=O)C1Cl` (stereo not drawn) [compound 2, 4-chloro-3-nitro-5-sulfonylbenzotrifluoride]: the pIC50 under setting [1] was 5.21. In addition, where the note is “against Leishmania species”, the “effectiveness compared with trifluralin” value is recorded as “much more effective than trifluralin”.
For the molecule `O=C(O)c1cc(C(F)(F)F)cc([N+](=O)[O-])c1Cl` [compound 3, 4-chloro-3-nitro-5-carboxybenzotrifluoride], the pIC50 under setting [1] was 3.92.
Regarding `O=[N+]([O-])c1cc(C(F)(F)F)ccc1Cl` [compound 4, 4-chloro-3-nitrobenzotrifluoride], under setting [1], the pIC50 was 4.46. For the same molecule, the “effectiveness compared with trifluralin” value (against Leishmania species) is “much more effective than trifluralin”.
In the case of `Nc1cc(C(F)(F)F)ccc1Cl` [compound 5, 3-amino-4-chlorobenzotrifluoride], the pIC50 under setting [1] was 4.11.
As to `Nc1cc(C(F)(F)F)cc(C(F)(F)F)c1Br` [compound 6, 2-bromo-3,5-bis(trifluoromethyl)aniline], the pIC50 under setting [1] is 4.59.
For the molecule `COc1ccc(C(F)(F)F)cc1[N+](=O)[O-]` [compound 7, 4-methoxy-3-nitrobenzotrifluoride], the pIC50 under setting [1] was 4.17.
With `O=[N+]([O-])c1cc(C(F)(F)F)ccc1S` [compound 8, 2-nitro-4-(trifluoromethyl)thiophenol], under setting [1], the pIC50 was 4.82. Moreover, for the setting “against Leishmania species”, the “effectiveness compared with trifluralin” value was “much more effective than trifluralin”.
